From US12312359B2 (Vitae Pharmaceuticals, LLC, priority 2016, dated 2025)

Columns and labels:
[1] = biological target: T1, biotinylated wild-type menin and MLL-AF9 fusion protein (menin/MLL binding) (Homo sapiens, UniProt O00255); experiment: Assay 1: menin/MLL binding AlphaLISA assay, wild-type menin; details: Table 30; column head does not say wild-type or mutated menin
T1 construct: made in house; host or cells: menin: E. coli; MLL-AF9-FLAG: HEK293 cells, used as cleared lysate
T1 sequence (O00255 1-610): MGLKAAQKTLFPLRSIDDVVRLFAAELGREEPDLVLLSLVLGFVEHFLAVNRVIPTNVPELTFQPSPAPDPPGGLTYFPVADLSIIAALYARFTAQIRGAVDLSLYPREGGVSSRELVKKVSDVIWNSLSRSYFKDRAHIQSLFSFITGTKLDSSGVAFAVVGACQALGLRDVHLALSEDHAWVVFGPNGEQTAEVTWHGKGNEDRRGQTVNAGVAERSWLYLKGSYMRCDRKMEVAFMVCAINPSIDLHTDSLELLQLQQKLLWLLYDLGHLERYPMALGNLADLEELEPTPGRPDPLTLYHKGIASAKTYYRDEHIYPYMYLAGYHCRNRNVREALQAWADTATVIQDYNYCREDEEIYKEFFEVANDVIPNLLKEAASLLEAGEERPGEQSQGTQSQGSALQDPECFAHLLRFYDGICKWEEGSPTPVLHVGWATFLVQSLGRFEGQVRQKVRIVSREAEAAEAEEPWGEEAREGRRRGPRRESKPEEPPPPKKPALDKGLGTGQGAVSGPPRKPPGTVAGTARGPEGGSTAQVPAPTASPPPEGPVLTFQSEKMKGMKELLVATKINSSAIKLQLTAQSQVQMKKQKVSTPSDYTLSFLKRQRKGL
Procedure, shortened: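 Compound was preincubated 30 min at room temperature with biotinylated menin (5 nM) and MLL-AF9-FLAG lysate from HEK293 cells, pH 7.4 buffer with 5% DMSO and DTT. Bead-based Alpha signal after 60 min with streptavidin donor and anti-FLAG acceptor beads; four-parameter logistic fit gave IC50.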

[2] = test system: human acute monocytic leukemia cell line MV-4-11; experiment: Assay 2: cell proliferation assay (ATP quantitation, CellTiter-Glo), MV-4-11; assay type: cell-based; details: MV-4-11 cells
Procedure, shortened: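 MV-4-11 cells, 1.67×10^4 per well in medium with 10% FBS, were exposed to compound for 72 h at 37° C., 5% CO2; HL-60 cells served as toxicity control. Proliferation read as ATP content by CellTiter-Glo luminescence.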

Row | SMILES | IC50 [1] | EC50 ([2]; Homo sapiens, MV4-11, 72 h) | EC50 ([2]; 72 h)
1 | CC(C)c1ncsc1-c1cc(F)ccc1Oc1cncnc1N1CCC2(CCN(Cc3ccc4[nH]c(=O)[nH]c4c3)C2)C1 (centres unmarked) [Example 224, 5-((7-(5-(4-fluoro-2-(4-isopropylthiazol-5-yl)phenoxy)pyrimidin-4-yl)-2,7-diazaspiro[4.4]nonan-2-yl)methyl)-1,3-dihydro-2H-benzo[d]imidazol-2-one] | < 0.1 µM | < 0.1 µM | 
2 | Cc1cc(C#N)ccc1-c1cc(F)ccc1Oc1cncnc1N1CCC2(CCN(Cc3ccc4[nH]c(=O)[nH]c4c3)C2)C1 (centres unmarked) [Example 226, 5′-fluoro-2-methyl-2′-((4-(7-((2-oxo-2,3-dihydro-1H-benzo[d]imidazol-5-yl)methyl)-2,7-diazaspiro[4.4]nonan-2-yl)pyrimidin-5-yl)oxy)-[1,1′-biphenyl]-4-carbonitrile] | < 0.1 µM |  | ≥ 1 µM
3 | CC(C)c1ncncc1-c1cc(F)ccc1Oc1cncnc1N1CC2(CN(C(=O)Cc3ccc(C#N)cc3)C2)C1 [Example 227, 4-(2-(6-(5-(4-fluoro-2-(4-isopropylpyrimidin-5-yl)phenoxy)pyrimidin-4-yl)-2,6-diazaspiro[3.3]heptan-2-yl)-2-oxoethyl)benzonitrile] | < 0.1 µM | < 0.1 µM | 
4 | CC(C)c1ccccc1-c1cc(F)ccc1Oc1cncnc1N1CC2(CN(C(=O)Cc3ccc(S(C)(=O)=O)cc3)C2)C1 [Example 229, 1-(6-(5-((5-fluoro-2′-isopropyl-[1,1′-biphenyl]-2-yl)oxy)pyrimidin-4-yl)-2,6-diazaspiro[3.3]heptan-2-yl)-2-(4-(methylsulfonyl)phenyl)ethan-1-one] | < 0.1 µM | 0.1 to 1 µM | 
5 | Cc1c(C#N)cccc1-c1cc(F)ccc1Oc1cncnc1N1CCC2(CCN(Cc3ccc4[nH]c(=O)[nH]c4c3)C2)C1 (centres unmarked) [Example 230, 5′-fluoro-2-methyl-2′-((4-(7-((2-oxo-2,3-dihydro-1H-benzo[d]imidazol-5-yl)methyl)-2,7-diazaspiro[4.4]nonan-2-yl)pyrimidin-5-yl)oxy)-[1,1′-biphenyl]-3-carbonitrile] | < 0.1 µM | 0.1 to 1 µM | 
6 | CC(C)c1ncncc1-c1cc(F)ccc1Oc1cncnc1N1CC2(CN(CC3CCCC(F)(F)C3)C2)C1 (centres unmarked) [Example 232, 2-((3,3-difluorocyclohexyl)methyl)-6-(5-(4-fluoro-2-(4-isopropylpyrimidin-5-yl)phenoxy)pyrimidin-4-yl)-2,6-diazaspiro[3.3] heptane] | < 0.1 µM | < 0.1 µM | 
7 | CC(C)n1nccc1-c1cc(F)ccc1Oc1cncnc1N1CC2(CC(NCc3ccc(C#N)cc3)CO2)C1 (centres unmarked) [Example 233, 4-(((2-(5-(4-fluoro-2-(1-isopropyl-1H-pyrazol-5-yl)phenoxy)pyrimidin-4-yl)-5-oxa-2-azaspiro[3.4]octan-7-yl)amino)methyl) benzonitrile] | < 0.1 µM | 0.1 to 1 µM | 
8 | CC(C)n1nccc1-c1cc(F)ccc1Oc1cncnc1N1CCC2(CCN(Cc3ccc4[nH]c(=O)[nH]c4c3)C2)C1 (centres unmarked) [Example 237, 5-((7-(5-(4-fluoro-2-(1-isopropyl-1H-pyrazol-5-yl)phenoxy)pyrimidin-4-yl)-2,7-diazaspiro[4.4]nonan-2-yl)methyl)-1,3-dihydro-2H-benzo[d]imidazol-2-one] | < 0.1 µM | < 0.1 µM | 
9 | CC(C)c1ccccc1-c1cc(F)ccc1Oc1cncnc1N1CC2(CN(CC3CCOCC3)C2)C1 [Example 237A, 2-(5-((5-fluoro-2′-isopropyl-[1,1′-biphenyl]-2-yl)oxy)pyrimidin-4-yl)-6-((tetrahydro-2H-pyran-4-yl)methyl)-2,6-diazaspiro[3.3] heptane] | < 0.1 µM | < 0.1 µM | 
10 | CC(C)N(C(=O)c1cc(F)ccc1Oc1cncnc1N1CC2(CC(NC3CCOCC3)C2)C1)C(C)C [Example 239, 5-fluoro-N,N-diisopropyl-2-((4-(6-((tetrahydro-2H-pyran-4-yl)amino)-2-azaspiro[3.3]heptan-2-yl)pyrimidin-5-yl)oxy)benzamide] | < 0.1 µM | < 0.1 µM | 
11 | CC(C)N(C(=O)c1cc(F)ccc1Nc1cncnc1N1CCC2(CC1)CN(C[C@H]1CC[C@H](NC(=O)OC(C)(C)C)CC1)C2)C(C)C [Example 241, tert-butyl ((1r,4r)-4-((7-(5-((2-(diisopropylcarbamoyl)-4-fluorophenyl)amino)pyrimidin-4-yl)-2,7-diazaspiro [3.5]nonan-2-yl)methyl)cyclohexyl) carbamate] | < 0.1 µM | 0.1 to 1 µM | 
12 | CC(C)c1ccccc1-c1cc(F)ccc1Nc1cncnc1N1CC2(CN(CC3(O)CCCCC3)C2)C1 [Example 242, 1-((6-(5-((5-fluoro-2′-isopropyl-[1,1′-biphenyl]-2-yl)amino)pyrimidin-4-yl)-2,6-diazaspiro [3.3]heptan-2-yl)methyl) cyclohexan-1-ol] | < 0.1 µM | 0.1 to 1 µM | 
13 | CC(C)c1ccccc1-c1cc(F)ccc1Oc1cnccc1N1CCC2(CCN(Cc3ccc4[nH]c(=O)[nH]c4c3)C2)C1 (centres unmarked) [Example 249, 5-((7-(3-((5-fluoro-2′-isopropyl-[1,1′-biphenyl]-2-yl)oxy)pyridin-4-yl)-2,7-diazaspiro[4.4]nonan-2-yl)methyl)-1,3-dihydro-2H-benzo[d]imidazol-2-one] | < 0.1 µM | 0.1 to 1 µM | 
14 | CC(=O)Nc1ccc(CN2C(=O)C3(CCN(c4ncncc4Oc4ccc(F)cc4C(=O)N(C)C(C)C)C3)N=C2N)cc1 (centres unmarked) [Example 251, 2-((4-(3-(4-acetamidobenzyl)-2-amino-4-oxo-1,3,7-triazaspiro[4.4]non-1-en-7-yl)pyrimidin-5-yl)oxy)-5-fluoro-N-isopropyl-N-methylbenzamide] | < 0.1 µM | ≥ 1 µM | 

More lines, now with the values ahead:

Row | IC50 [1] | EC50 ([2]; Homo sapiens, MV4-11, 72 h) | EC50 ([2]; 72 h) | SMILES
15 | < 0.1 µM | 0.1 to 1 µM |  | CC(C)N(C)C(=O)c1cc(F)ccc1Oc1cncnc1N1CC2(CN(CC3CCOCC3)C2)C1 [Example 225, 5-fluoro-N-isopropyl-N-methyl-2-((4-(6-((tetrahydro-2H-pyran-4-yl)methyl)-2,6-diazaspiro[3.3]heptan-2-yl)pyrimidin-5-yl)oxy)benzamide]
16 | < 0.1 µM | 0.1 to 1 µM |  | CC(C)c1ccccc1-c1cc(F)ccc1Oc1cncnc1N1CC2(CN(C(=O)Cc3ccc(C#N)cc3)C2)C1 [Example 228, 4-(2-(6-(5-((5-fluoro-2′-isopropyl-[1,1′-biphenyl]-2-yl)oxy)pyrimidin-4-yl)-2,6-diazaspiro[3.3]heptan-2-yl)-2-oxoethyl)benzonitrile]
17 | < 0.1 µM | 0.1 to 1 µM |  | CC(C)n1nccc1-c1cc(F)ccc1Oc1cncnc1N1CC2(CN(CC3CCCC(F)(F)C3)C2)C1 (centres unmarked) [Example 231, 2-((3,3-difluorocyclohexyl)methyl)-6-(5-(4-fluoro-2-(1-isopropyl-1H-pyrazol-5-yl)phenoxy)pyrimidin-4-yl)-2,6-diazaspiro[3.3] heptane]
18 | < 0.1 µM | < 0.1 µM |  | CCc1ncccc1-c1cc(F)ccc1Oc1cncnc1N1CCC2(CCN(Cc3ccc4[nH]c(=O)[nH]c4c3)C2)C1 (centres unmarked) [Example 234, 5-((7-(5-(2-(2-ethylpyridin-3-yl)-4-fluorophenoxy)pyrimidin-4-yl)-2,7-diazaspiro [4.4]nonan-2-yl)methyl)-1,3-dihydro-2H-benzo[d]imidazol-2-one]
19 | < 0.1 µM | 0.1 to 1 µM |  | CC(C)CCc1cc(F)ccc1Oc1cncnc1N1CCC2(CCN(Cc3ccc4[nH]c(=O)[nH]c4c3)C2)C1 (centres unmarked) [Example 235, 5-((7-(5-(4-fluoro-2-isopentylphenoxy)pyrimidin-4-yl)-2,7-diazaspiro[4.4]nonan-2-yl)methyl)-1,3-dihydro-2H-benzo[d]imidazol-2-one]
20 | < 0.1 µM | 0.1 to 1 µM |  | CC(C)Cc1cc(F)ccc1Oc1cncnc1N1CCC2(CCN(Cc3ccc4[nH]c(=O)[nH]c4c3)C2)C1 (centres unmarked) [Example 236, 5-((7-(5-(4-fluoro-2-isobutylphenoxy)pyrimidin-4-yl)-2,7-diazaspiro[4.4]nonan-2-yl)methyl)-1,3-dihydro-2H-benzo[d]imidazol-2-one]
21 | < 0.1 µM | < 0.1 µM |  | CCN(C(=O)c1cc(F)ccc1Oc1cncnc1N1CC2(CCN(C[C@H]3CC[C@H](NS(C)(=O)=O)CC3)CC2)C1)C(C)C [Example 238, N-ethyl-5-fluoro-N-isopropyl-2-((4-(7-(((1r,4r)-4-(methylsulfonamido)cyclohexyl)methyl)-2,7-diazaspiro[3.5]nonan-2-yl)pyrimidin-5-yl)oxy)benzamide]
22 | < 0.1 µM | < 0.1 µM |  | CC(C)N(C(=O)c1cc(F)ccc1Oc1cncnc1N1CC2(CC(N(C)C3CCOCC3)C2)C1)C(C)C [Example 240, 5-fluoro-N,N-diisopropyl-2-((4-(6-(methyl(tetrahydro-2H-pyran-4-yl)amino)-2-azaspiro[3.3]heptan-2-yl)pyrimidin-5-yl)oxy)benzamide]
